# Data as given in patent US20260248722A1, “METHOD FOR CARTILAGE REGENERATION AND REGROWTH FOLLOWING INJURY” (ELUCIDERM INC., priority 2021, published 2026).
# Key:
# [1] = test system: 2 mm biopsy punch wound in the center of the cartilaginous region of each ear; experiment: Cartilage regrowth in mouse ears after 2 mm biopsy punch wound (Example 2); type: in vivo, C57Bl/6J mice; settings: XAV939 in DMSO every day for 30 days
# Source text: C57Bl/6J mice were purchased from The Jackson Laboratory (Bar Harbor, ME, USA) and maintained by PPY. C57Bl/6J mice (at least 3 months of age) were anesthetized with 3-5% isoflurane in O2 administered using Tabletop Laboratory Animal Anesthesia System (VetEquip Inc., Pleasanton, CA, USA). A 2 mm biopsy punch wound was made in the center of the cartilaginous region of each ear using a disposable biopsy punch (Acuderm Inc., Fort Lauderdale, FL, USA) as described previously (Rai, M. F. et al, 2021, Arthritis Rheum., 64:2300-2310). […] In order to quantify closure of the wounds, ears were excised following mouse sacrifice, fixed and placed on microscope slides for examination by way of the digital camera being affixed to a Micromaster Inverted microscope (Thermo Fisher Scientific, Waltham, MA, USA). […] Sections of the tissue were then stained with Trichome blues, imaged and analyzed by way of an Olympus DP71 microscope camera (Olympus America, Center Valley, PA, USA). […] For quantification of wound closure, ears were excised after the mice were sacrificed, placed on microscope slides (Denville Scientific, South Plainfield, NJ, USA) and imaged using Nikon Coolpix 8700 affixed to Micromaster Inverted microscope (Thermo Fisher Scientific, Waltham, MA, USA). […]
# ear punch wound = settings: topical application, dissolved in DMSO; cited from earlier work
# CRE, F-κB, or TGF-β = settings: cited from earlier work
# [2] = cited from earlier work
# [3] = test system: 2 mm biopsy punch wound in the center of the cartilaginous region; settings: XAV939 dissolved in DMSO; cited from earlier work
smiles,measurement,setting,value
"Oc1nc(-c2ccc(C(F)(F)F)cc2)nc2c1CSCC2 [XAV939, 3,5,7,8-Tetrahydro-2-[4-(trifluoromethyl)phenyl]-4H-thiopyrano[4,3-d]pyrimidin-4-one]","nature and character of the cartilage regrowth in the wounds, compared to DMSO control",[1],improved
same,fibrosis (scarring),ear punch wound,reduced fibrosis
same,rate of wound closure,ear punch wound,significantly increased
same,"effect on CRE, F-κB, or TGF-β","CRE, F-κB, or TGF-β",does not affect
same,aqueous solubility,[2],< 1 µg/mL
same,cartilage regeneration and healing following acute injury,[3],increased cartilage regeneration and healing
